Legend:
[1] = target: T1, human somatostatin receptor SST4 (Homo sapiens, UniProt P31391); format: cell-based
T1 construct: expressed in transfected cells; host or cells: HTLA cells

[2] = target: T2, human somatostatin receptor SST5 (Homo sapiens, UniProt P35346); format: cell-based
T2 construct: expressed in transfected cells; host or cells: HTLA cells

[3] = target: T3, human somatostatin receptor SST2 (Homo sapiens, UniProt P30874); format: cell-based
T3 construct: expressed in transfected cells; host or cells: HTLA cells
T3 sequence (P30874 whole entry): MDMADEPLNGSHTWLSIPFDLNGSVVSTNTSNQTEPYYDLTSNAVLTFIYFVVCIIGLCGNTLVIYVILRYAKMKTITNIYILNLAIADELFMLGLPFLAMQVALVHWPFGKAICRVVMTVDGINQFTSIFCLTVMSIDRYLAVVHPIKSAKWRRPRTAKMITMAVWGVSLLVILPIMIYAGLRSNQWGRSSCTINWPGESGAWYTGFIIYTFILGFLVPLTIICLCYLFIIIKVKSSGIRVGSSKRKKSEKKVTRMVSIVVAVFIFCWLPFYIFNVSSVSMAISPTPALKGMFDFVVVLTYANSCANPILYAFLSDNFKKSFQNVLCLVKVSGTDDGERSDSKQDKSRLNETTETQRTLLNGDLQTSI

[4] = system: mouse model of post-surgical pain; set-up: species or system mice; conditions: in vivo
[5] = system: model of chronic neuropathic pain (spared nerve injury, SNI); set-up: species or system C57BL/6NRj mice; conditions: mouse, in vivo
[6] = target: T4, human somatostatin receptor SST3 (Homo sapiens, UniProt P32745); format: cell-based
T4 construct: expressed in transfected cells; host or cells: HTLA cells
T4 sequence (P32745 whole entry): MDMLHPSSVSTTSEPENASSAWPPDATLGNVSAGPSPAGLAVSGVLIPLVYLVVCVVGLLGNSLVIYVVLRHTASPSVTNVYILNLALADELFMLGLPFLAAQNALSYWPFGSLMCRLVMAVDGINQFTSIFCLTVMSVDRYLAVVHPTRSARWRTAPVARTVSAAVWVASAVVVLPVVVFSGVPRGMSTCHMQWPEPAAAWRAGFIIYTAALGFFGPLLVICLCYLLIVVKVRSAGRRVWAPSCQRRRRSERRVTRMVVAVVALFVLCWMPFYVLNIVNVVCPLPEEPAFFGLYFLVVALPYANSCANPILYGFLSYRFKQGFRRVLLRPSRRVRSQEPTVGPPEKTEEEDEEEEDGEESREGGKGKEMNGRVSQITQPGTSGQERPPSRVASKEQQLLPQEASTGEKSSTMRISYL

[7] = system: LPS-stimulated mouse macrophages; format: cell-based, BALB/c mice
[8] = target: T5, human somatostatin receptor SST1 (Homo sapiens, UniProt P30872); format: cell-based
T5 construct: expressed in transfected cells; host or cells: HTLA cells
T5 sequence (P30872 whole entry): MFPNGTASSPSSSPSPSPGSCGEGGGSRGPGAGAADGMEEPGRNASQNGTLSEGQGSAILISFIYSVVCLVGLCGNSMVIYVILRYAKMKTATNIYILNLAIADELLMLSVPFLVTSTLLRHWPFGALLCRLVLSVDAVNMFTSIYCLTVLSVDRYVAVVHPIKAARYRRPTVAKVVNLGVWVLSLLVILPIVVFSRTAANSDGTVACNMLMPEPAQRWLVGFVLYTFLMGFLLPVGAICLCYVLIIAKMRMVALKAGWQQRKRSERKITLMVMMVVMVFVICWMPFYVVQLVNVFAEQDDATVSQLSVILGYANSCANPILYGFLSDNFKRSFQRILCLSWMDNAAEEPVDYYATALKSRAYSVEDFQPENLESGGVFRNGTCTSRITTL

T1 sequence (P31391 whole entry): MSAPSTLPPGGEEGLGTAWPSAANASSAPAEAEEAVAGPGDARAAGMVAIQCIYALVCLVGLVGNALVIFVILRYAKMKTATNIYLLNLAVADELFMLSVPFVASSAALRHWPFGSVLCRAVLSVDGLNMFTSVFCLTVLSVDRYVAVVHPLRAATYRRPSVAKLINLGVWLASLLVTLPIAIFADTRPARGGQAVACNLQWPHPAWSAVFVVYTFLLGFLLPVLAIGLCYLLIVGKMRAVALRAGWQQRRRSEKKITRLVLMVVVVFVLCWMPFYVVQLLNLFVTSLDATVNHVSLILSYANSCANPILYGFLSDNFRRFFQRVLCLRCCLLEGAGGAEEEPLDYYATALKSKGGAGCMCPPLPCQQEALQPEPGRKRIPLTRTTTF
T2 sequence (P35346 whole entry): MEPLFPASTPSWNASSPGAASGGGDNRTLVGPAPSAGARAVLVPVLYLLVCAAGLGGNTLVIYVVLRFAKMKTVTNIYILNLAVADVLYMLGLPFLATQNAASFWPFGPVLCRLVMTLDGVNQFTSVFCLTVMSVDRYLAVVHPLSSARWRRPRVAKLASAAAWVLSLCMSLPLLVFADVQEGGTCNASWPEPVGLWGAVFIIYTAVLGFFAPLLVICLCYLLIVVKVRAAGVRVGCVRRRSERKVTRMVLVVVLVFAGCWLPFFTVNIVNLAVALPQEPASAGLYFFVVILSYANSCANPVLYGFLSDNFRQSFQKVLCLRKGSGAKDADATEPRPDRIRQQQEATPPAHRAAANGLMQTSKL

In the case of PVCWKFGCPL [HSH-109, PVCwKFGCOL], the “apparent potency at SST4” value [1] is reported as “low nanomolar range”, the “potency compared with Cont-Ro1” value [1] is reported as “more potent” and the “selectivity for SST4 compared with Cont-Ro1” value [1] is reported as “more selective for SST4 than Cont-Ro1”. The “activation of SST5” value [2] was “did not significantly activate”, the “activation of SST2” value [3] was “did not significantly activate” and the “area under the curve larger than for Cont-Ro1” value [4] was 39%. The “duration of effect compared with Cont-Ro1” value [4] was “longer lasting”, the “duration of effect versus morphine positive control” value [4] was “longer lasting than the morphine positive control” and the “effect level compared with Cont-Ro1” value [4] was “tendency for a higher effect level of HSH-109 over Cont-Ro1”. For the same sequence, the expected efficacy [4] was “expected to be fully efficacious”, the reduction of hypersensitivity [4] was “robust reduction of hypersensitivity” and the “reduction of mechanical hypersensitivity” value [5] was “very robust reduction of mechanical hypersensitivity”. The “activation of SST3” value [6] was “did not significantly activate”, the “reduction of MCP1 levels” value [7] was ~47% and the “reduction of TNFα levels” value [7] was ~62%. For the same sequence, the “apparent potency at SST1” value [8] was “low micromolar range”.
